From ChEMBL document CHEMBL1129441, “Derivatives of the triazoloquinazoline adenosine antagonist (CGS15943) are selective for the human A3 receptor subtype” (J Med Chem, 1996)

Tests used:
Adenosine receptor A1 [1] = molecular target: T1, Adenosine receptor A1 (Rattus norvegicus, UniProt P25099); experiment: Binding affinity for A1 receptors from rat cerebral cortex membranes using [3H]-(R(-PIA; type: tissue-based
T1 sequence (P25099 whole entry): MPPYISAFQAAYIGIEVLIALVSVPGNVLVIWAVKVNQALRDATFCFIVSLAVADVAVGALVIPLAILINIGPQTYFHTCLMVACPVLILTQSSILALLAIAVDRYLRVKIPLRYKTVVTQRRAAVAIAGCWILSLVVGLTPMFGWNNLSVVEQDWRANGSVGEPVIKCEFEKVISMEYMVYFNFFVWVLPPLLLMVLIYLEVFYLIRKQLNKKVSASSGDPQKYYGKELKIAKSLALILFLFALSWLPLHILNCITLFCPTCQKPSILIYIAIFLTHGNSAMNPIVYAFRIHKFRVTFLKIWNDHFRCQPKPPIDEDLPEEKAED

Adenosine receptor A3 [2] = molecular target: T2, Adenosine receptor A3 (Homo sapiens, UniProt P0DMS8); experiment: biochemical
T2 sequence (P0DMS8 whole entry): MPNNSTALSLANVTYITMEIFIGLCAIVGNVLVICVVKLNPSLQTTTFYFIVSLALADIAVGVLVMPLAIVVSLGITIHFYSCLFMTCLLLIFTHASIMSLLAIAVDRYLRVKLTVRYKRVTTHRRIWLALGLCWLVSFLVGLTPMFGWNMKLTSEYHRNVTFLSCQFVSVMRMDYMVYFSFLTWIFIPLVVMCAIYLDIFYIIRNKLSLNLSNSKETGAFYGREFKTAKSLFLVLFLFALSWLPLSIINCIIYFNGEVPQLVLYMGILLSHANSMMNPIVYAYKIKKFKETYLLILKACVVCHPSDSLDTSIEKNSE
Description: In vitro binding affinity at human Adenosine A3 receptor from HEK293 cells by [125I]AB-MECA displacement.

Adenosine receptor A2a [3] = molecular target: T3, Adenosine receptor A2a (Rattus norvegicus, UniProt P30543); experiment: (§1) Binding affinity for Adenosine A2A receptor from rat striatal membranes using [3H]-[…]
T3 sequence (P30543 whole entry): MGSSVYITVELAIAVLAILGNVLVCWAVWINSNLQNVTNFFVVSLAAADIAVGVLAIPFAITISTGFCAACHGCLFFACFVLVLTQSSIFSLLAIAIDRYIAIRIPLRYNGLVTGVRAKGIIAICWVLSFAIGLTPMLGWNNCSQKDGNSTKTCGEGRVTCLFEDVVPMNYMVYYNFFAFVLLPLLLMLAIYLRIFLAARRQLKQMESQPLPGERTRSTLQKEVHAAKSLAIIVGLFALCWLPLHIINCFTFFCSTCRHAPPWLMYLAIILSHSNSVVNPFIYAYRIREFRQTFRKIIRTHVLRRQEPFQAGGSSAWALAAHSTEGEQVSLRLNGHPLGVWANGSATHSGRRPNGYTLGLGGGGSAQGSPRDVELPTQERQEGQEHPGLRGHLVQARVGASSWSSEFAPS

Adenosine receptor A2a [4] = molecular target: T3, Adenosine receptor A2a; experiment: Displacement of [3H]-[…] from Adenosine A2A receptor of rat striatal membranes; type: cell membranes, Membrane
Adenosine receptor A1 [5] = molecular target: T1, Adenosine receptor A1; experiment: Binding affinity for Adenosine A1 receptor from rat cerebral cortex membranes using [3H](R)-PIA; type: tissue-based
[6] = Relative binding to rat A2A and human A3 adenosine receptors (ratio of IC50)
[7] = Relative binding to rat A1 and human A3 adenosine receptors (ratio of IC50)
Adenosine receptor A1 [8] = molecular target: T1, Adenosine receptor A1; experiment: Displacement of [3H]-(R)-PIA from Adenosine A1 receptor of rat cerebral cortex membranes; type: cell membranes, Membrane
Adenosine receptor A3 [9] = molecular target: T4, Adenosine receptor A3 (Rattus norvegicus, UniProt P28647)
T4 sequence (P28647 whole entry): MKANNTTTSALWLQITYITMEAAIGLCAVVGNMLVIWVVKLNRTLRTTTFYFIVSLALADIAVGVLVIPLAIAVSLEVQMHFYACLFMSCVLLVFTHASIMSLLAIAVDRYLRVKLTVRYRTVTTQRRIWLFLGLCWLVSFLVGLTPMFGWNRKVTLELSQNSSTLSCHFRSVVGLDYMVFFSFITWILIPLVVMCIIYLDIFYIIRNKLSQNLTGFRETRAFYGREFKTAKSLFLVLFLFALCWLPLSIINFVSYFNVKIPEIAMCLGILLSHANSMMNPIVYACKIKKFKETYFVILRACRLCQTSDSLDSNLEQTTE
Description: Binding affinity for Adenosine A3 receptor from rat striatal membranes

[10] = molecular target: T5, Adenosine receptor A1 (Rattus norvegicus) (UniProt P25099); experiment: Binding affinity for Adenosine A1 receptor from rat cerebral cortex membranes using [3H]-(R)-PIA; type: tissue-based; details: concentration not given here
T5 sequence (whole entry): T1 sequence (P25099 whole entry)

[11] = molecular target: Adenosine receptor A2a (Rattus norvegicus) (UniProt P30543); experiment: as §1; details: concentration not given here
Chain of Adenosine receptor A2a (Rattus norvegicus) (P30543 whole entry): as the sequence (P30543 whole entry) above

Row | SMILES | Ki (Adenosine receptor A3 [2]) | Ki (Adenosine receptor A2a [4]) | Ratio [6] | Ratio [7] | further results
1 | CCOC(=O)C1=C(c2ccccc2)Nc2cc(C)c(C(=O)OCC)cc2C1/C=C/c1ccccc1 (stereo not given) | 0.11 nM |  |  |  | IC50 (Adenosine receptor A1 [1]): 5.93 nM; IC50 (Adenosine receptor A2a [3]): 4.77 nM
2 | Cc1ccc(-c2oc3ccc(Cl)cc3c(=O)c2Cl)c(OC(C)C)c1 |  |  |  |  | Ki (Adenosine receptor A1 [5]): > 100 µM; IC50 (Adenosine receptor A2a [3]): > 100 nM
3 | NCCCC(=O)Nc1nc2ccc(Cl)cc2c2nc(-c3ccco3)nn12 | 80.8 nM | 14.4 nM | 0.18 | 0.14 | 
4 | O=C(Nc1nc2ccc(Cl)cc2c2nc(-c3ccco3)nn12)c1ccccc1 | 3.03 nM | 273 nM | 90 | 220 | Ki (Adenosine receptor A1 [8]): 680 nM
5 | Nc1nc2ccc(Cl)cc2c2nc(-c3ccco3)nn12 [CGS-15943] |  |  |  |  | IC50 (Adenosine receptor A2a [3]): 3.3 nM; Ki (Adenosine receptor A3 [9]): 100 µM
6 | CCCCC(=O)Nc1nc2ccc(Cl)cc2c2nc(-c3ccco3)nn12 |  | 48.8 nM | 2.3 | 1.3 | 
7 | O=C(Nc1nc2ccc(Cl)cc2c2nc(-c3ccco3)nn12)c1cccc(I)c1 | 23.8 nM | 310 nM | 13 | 8.4 | Ki (Adenosine receptor A1 [8]): 200 nM
8 | O=C(Nc1nc2ccc(Cl)cc2c2nc(-c3ccc(Br)o3)nn12)c1ccccc1 |  |  |  |  | inhibition [10]: < 10%; inhibition [11]: < 10%
9 | Oc1nc2ccc(Cl)cc2c2nc(-c3ccco3)nn12 |  | 4380 nM | 17 | 15 | Ki (Adenosine receptor A1 [8]): 3950 nM
10 | CCCn1c(=O)n2nc(-c3ccco3)nc2c2cc(Cl)ccc21 | 1810 nM | 6960 nM | 3.8 | 1 | Ki (Adenosine receptor A1 [8]): 1850 nM
11 | CCC(=O)Nc1nc2ccc(Cl)cc2c2nc(-c3ccco3)nn12 |  |  | 14 | 40 | 

Further lines, with some results ahead:

Row | Ki (Adenosine receptor A3 [2]) | Ki (Adenosine receptor A2a [4]) | Ratio [6] | Ratio [7] | SMILES | further results
12 | 64 nM |  |  |  | Nc1nc2ccc(Cl)cc2c2nc(-c3ccc(Br)o3)nn12 | IC50 (Adenosine receptor A2a [3]): 531 nM
13 |  | 36.3 nM |  |  | CC(=O)Nc1nc2ccc(Cl)cc2c2nc(-c3ccco3)nn12 | 
14 |  | 88.8 nM | 0.36 | 0.84 | CC(C)(C)C(=O)Nc1nc2ccc(Cl)cc2c2nc(-c3ccco3)nn12 | 
15 |  | 37.6 nM | 2.6 | 2.2 | CCCC(=O)Nc1nc2ccc(Cl)cc2c2nc(-c3ccco3)nn12 | 
16 | 32.9 nM | 135 nM | 4.1 | 2.8 | CC(C)(C)OC(=O)NCCCC(=O)Nc1nc2ccc(Cl)cc2c2nc(-c3ccco3)nn12 | 
